53 molecules from paper PMC5706701, “Development of a homogenous high-throughput assay for inositol hexakisphosphate kinase 1 activity” (PLoS ONE, 2017) can be followed below.

Where a name gives a salt, the structure may show the parent alone. Read-outs that look alike come from different tables or passages of the source.

The test has as its target T1, Human IP6K1 (Homo sapiens, UniProt Q92551).
T1 construct: GST (N, cleaved yes); made in house; host or cells: C43 E. coli, pGEX-6P-2
The test can be described thus: IP6K1 high-throughput screen of the Sigma LOPAC (ADP-Glo Max, single point).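 Note: final compound concentration 10µM in 5% DMSO.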 In kind it is biochemical. On the technique in general: ADP-Glo first removes unused ATP, then detects ADP through luciferase.

Where [1] appears, read: LOPAC single-point screen, ADP-Glo Max raw signal per well.
The mark [2] stands for this setting: LOPAC single-point screen, Z-score from raw signal with plate average and StDev.
Where [3] appears, read: LOPAC single-point screen, Z-score against plate average and StDev.
Where [4] appears, read: LOPAC single-point screen, ADP-Glo Max luminescence raw signal per well.
Where [5] appears, read: LOPAC single-point screen, Z-score relative to plate average and StDev.
Where [6] appears, read: Sigma LOPAC single-point screen, ADP-Glo Max raw signal per well.
[7] abbreviates: Sigma LOPAC single-point screen, Z-score from plate average and StDev.
Setting [8] is: LOPAC single-point screen, Z-score from plate average and StDev.

T1 sequence (Q92551 whole entry): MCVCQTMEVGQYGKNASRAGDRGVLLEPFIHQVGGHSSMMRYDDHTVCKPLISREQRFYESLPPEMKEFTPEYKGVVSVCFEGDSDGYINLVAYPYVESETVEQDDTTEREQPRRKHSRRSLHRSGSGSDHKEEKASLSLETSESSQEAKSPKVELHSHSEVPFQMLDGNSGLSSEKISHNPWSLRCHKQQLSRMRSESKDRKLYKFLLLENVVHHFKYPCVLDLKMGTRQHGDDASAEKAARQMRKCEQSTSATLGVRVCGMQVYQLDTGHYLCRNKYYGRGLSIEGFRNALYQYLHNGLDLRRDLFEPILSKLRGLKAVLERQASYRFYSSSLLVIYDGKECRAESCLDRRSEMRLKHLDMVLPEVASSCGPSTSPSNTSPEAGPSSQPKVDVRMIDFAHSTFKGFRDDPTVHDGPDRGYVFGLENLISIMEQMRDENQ

`CCN1CCc2nc(N)oc2CC1.Cl.Cl` [B-HT 933 dihydrochloride]: the “Raw Signal” value under setting [1] came to 56378. In addition, the Z-score under setting [2] is -0.2704.
Turning to `C[Se]C[C@H](N)C(=O)O.Cl` [Se-(methyl)selenocysteine hydrochloride], the “Raw Signal” value under setting [1] was determined as 55528. This molecule also displayed a Z-score under setting [3] of 0.1906.
For `O=C(O)c1ccccc1Nc1cccc(OCc2ccc3ccccc3n2)c1` [SR 2640], the “Raw Signal” value under setting [4] came out at 52929. The Z-score under setting [5] is -0.6013.
In the case of `Cl.Cl.Oc1ccc2c3c1O[C@H]1c4[nH]c5c(c4C[C@@]4(O)[C@@H](C2)N(CC2CC2)CC[C@]314)C[C@@]1(O)[C@H]2Cc3ccc(O)c4c3[C@@]1(CCN2CC1CC1)[C@H]5O4` [nor-Binaltorphimine dihydrochloride], the “Raw Signal” value under setting [6] was determined as 56488. Also, under setting [7], the Z-score stood at 0.3519.
As to `O=C1c2c(O)cc(O)cc2OC(c2ccc(O)c(O)c2)C1O` (racemic) [(±)-Taxifolin], under setting [6], the “Raw Signal” value was 61241. In addition, the Z-score under setting [7] was 1.0136.
As to `CNC[C@H](O)c1ccc(O)c(O)c1` [(-)-Epinephrine bitartrate], the “Raw Signal” value under setting [4] came to 51229. In addition, under setting [5], the Z-score is on record as -0.7998.
Regarding `CC(C)(C)NCC(O)COc1cccc2[nH]c(=O)[nH]c12.Cl` (racemic) [(±)-CGP-12177A hydrochloride], the “Raw Signal” value under setting [6] amounted to 57688. The molecule further displayed a Z-score under setting [7] of 0.512.
With `O=C(CCNNC(=O)c1ccncc1)NCc1ccccc1` [Nialamide], the “Raw Signal” value under setting [1] is given as 52793. This molecule gave a Z-score under setting [2] of -0.2689.
With `COc1ccccc1NC(=O)Nc1nc(-c2cccnc2)nc2ccccc12` [VUF 5574], the “Raw Signal” value under setting [6] is recorded as 58097. In addition, the Z-score under setting [7] is recorded as 0.4028.
Take `O=C1Cc2c([nH]c3ccc(Br)cc23)-c2ccccc2N1` [Kenpaullone]: the “Raw Signal” value under setting [4] is listed as 65095. The molecule also came in with a Z-score under setting [8] of 1.798.
With `CNC[C@H](O)c1cccc(O)c1` [Phenylephrine hydrochloride], the “Raw Signal” value under setting [1] was determined as 56055. The molecule also showed a Z-score under setting [3] of 0.2792.
As for `CCCN(CCC)CCc1c[nH]c2ccc(C(N)=O)cc12.O=C(O)/C=C\C(=O)O`, under setting [6], the “Raw Signal” value amounted to 60214. Under setting [7], this molecule yielded a Z-score of 1.025.
The matching figures for `CC(C)Cn1c(=O)n(C)c(=O)c2[nH]cnc21` [3-Isobutyl-1-methylxanthine]: 62159 and 1.305.
As to `COCc1nc2c([nH]1)c(=O)n(C)c(=O)n2CC(C)C`, the “Raw Signal” value under setting [1] is given as 51997. This molecule came in with a Z-score under setting [2] of -0.4027.
For `CC1=C(CC(=O)O)c2cc(F)ccc2/C1=C\c1ccc([S+](C)[O-])cc1` (stereo not shown) [Sulindac], the “Raw Signal” value under setting [4] is listed as 51494. Moreover, the Z-score under setting [5] was -0.8801.
Turning to `O=C(O)C1CCNCC1` [Isonipecotic acid], the “Raw Signal” value under setting [1] stood at 51826. Besides, the Z-score under setting [2] was -0.4314.
As to `COc1cc2c(CCNC(C)=O)c[nH]c2cc1O` [6-Hydroxymelatonin], the “Raw Signal” value under setting [4] is recorded as 52038. The same molecule returned a Z-score under setting [5] of -0.6355.
For the molecule `CC(CCc1ccccc1)NCC(O)c1ccc(O)c(C(N)=O)c1` (stereo not shown) [Labetalol hydrochloride], under setting [1], the “Raw Signal” value worked out at 53329. The Z-score under setting [2] was -0.1789.
With `C[C@]12CC[C@@H](O)C[C@@H]1CC[C@@H]1[C@@H]2CC[C@]2(C)[C@@H](C(=O)CO)CC[C@@H]12`, the “Raw Signal” value under setting [1] came out at 54259. Under setting [3], this molecule registered a Z-score of -0.0226.
Regarding `CCC1(C)CC(=O)NC1=O` (stereo not shown) [Ethosuximide], under setting [6], the “Raw Signal” value is recorded as 57090. The molecule also yielded a Z-score under setting [7] of 0.3905.
As to `Nc1ncnc2c1nc(Sc1ccc(Cl)cc1)n2C1OC2COP(=O)(O)OC2C1O` (stereo in doubt) [8-(4-Chlorophenylthio)-cAMP sodium], under setting [4], the “Raw Signal” value came out at 54805. Also, under setting [5], the Z-score is given as -0.5474.
Consider `CC1CNCCN1S(=O)(=O)c1cccc2cnccc12.Cl.Cl` (stereo not shown), for which the “Raw Signal” value under setting [1] was found to be 52932. Under setting [2], this molecule displayed a Z-score of -0.2456.
Turning to `COCCOC(=O)C1=C(C)NC(C)=C(C(=O)OC(C)C)C1c1cccc([N+](=O)[O-])c1` (stereo not shown) [Nimodipine], under setting [1], the “Raw Signal” value is recorded as 55940. Further, the Z-score under setting [3] was 0.2599.
Take `CN(C)[C@@H]1C(O)=C(C(N)=O)C(=O)[C@@]2(O)C(O)=C3C(=O)c4c(O)ccc(Cl)c4[C@@H](O)[C@H]3C[C@@H]12` [Demeclocycline hydrochloride]: the “Raw Signal” value under setting [4] turned out to be 42734. Further, under setting [5], the Z-score is given as -2.525.
As to `CCNC(=O)[C@H]1O[C@@H](n2cnc3c(N)ncnc32)[C@H](O)[C@@H]1O` [5 -N-Ethylcarboxamidoadenosine], the “Raw Signal” value under setting [1] amounted to 52988. Further, under setting [2], the Z-score is given as -0.4425.
Turning to `C[C@H]1c2cccc(O)c2C(=O)C2=C(O)[C@]3(O)C(=O)C(C(N)=O)=C(O)[C@@H](N(C)C)[C@@H]3[C@@H](O)[C@@H]21` [Doxycycline hydrochloride], the “Raw Signal” value under setting [4] worked out at 51944. This molecule showed a Z-score under setting [5] of -0.6546.
For the molecule `NC(N)=NCCCCN=C(N)N` [Arcaine sulfate], the “Raw Signal” value under setting [1] came out at 57202. Under setting [2], this molecule returned a Z-score of -0.1252.
For `NCCc1ccc(O)c(O)c1` [Dopamine hydrochloride], the “Raw Signal” value under setting [4] is 44704. Besides, the Z-score under setting [5] is recorded as -2.125.
For the molecule `CCOC(=O)C1=C(C)NC(=S)NC1c1cccc(O)c1` (stereo not shown) [Monastrol], the “Raw Signal” value under setting [1] came out at 54262. For the same molecule, the Z-score under setting [3] is -0.0221.
Regarding `NNCc1cccc(O)c1` [3-Hydroxybenzylhydrazine dihydrochloride], the “Raw Signal” value under setting [1] was determined as 53590. The molecule further gave a Z-score under setting [2] of -0.3203.
For `CN(C)CCCN1c2ccccc2Sc2ccccc21` [Promazine hydrochloride], the “Raw Signal” value under setting [4] turned out to be 63198. This molecule returned a Z-score under setting [8] of 1.394.
For the molecule `Cc1c(CC(C)(C)C(=O)O)n(Cc2ccc(Cl)cc2)c2ccc(F)cc12` [L-655,240], the “Raw Signal” value under setting [4] turned out to be 51424. Also, the Z-score under setting [5] was -0.499.
For the molecule `CCNC(=O)[C@H]1O[C@@H](n2cnc3c(N)nc(NCCc4ccc(CCC(=O)O)cc4)nc32)[C@H](O)[C@@H]1O.Cl` [CGS-21680 hydrochloride], the “Raw Signal” value under setting [4] was 62301. Further, the Z-score under setting [8] is reported as 1.449.
As for `CCn1cc(C(=O)[O-])c(=O)c2ccc(C)nc21.[Na+]` [Nalidixic acid sodium], the “Raw Signal” value under setting [4] is listed as 49665. Also, under setting [5], the Z-score is recorded as -0.7945.
On to `O=C(O)/C=C1\CCCc2ccccc2C1O` (stereo not shown) [NCS-382], for which the “Raw Signal” value under setting [4] came out at 49943. Under setting [5], this molecule came in with a Z-score of -0.7478.
Regarding `NC12CC3CC(CC(C3)C1)C2` [Amantadine hydrochloride], the “Raw Signal” value under setting [4] is given as 68782. In addition, the Z-score under setting [8] turned out to be 1.914.
Regarding `O=c1onc2cnc3ccccc3n12` [ODQ], under setting [6], the “Raw Signal” value amounted to 60819. Under setting [7], this molecule yielded a Z-score of 1.08.
On to `CC(=O)N[C@@H](CS)C(=O)O` [N-Acetyl-L-Cysteine], for which the “Raw Signal” value under setting [6] is listed as 65323. Under setting [7], this molecule registered a Z-score of 1.305.
Consider `Cl.NCC#Cc1ccccc1` [3-Phenylpropargylamine hydrochloride], for which the “Raw Signal” value under setting [4] is on record as 53264. Moreover, the Z-score under setting [5] is given as -0.5362.
Turning to `OC[C@H]1O[C@@H](n2cnc3c(NC4CCCC4)ncnc32)[C@H](O)[C@@H]1O` [N6-Cyclopentyladenosine], the “Raw Signal” value under setting [1] was found to be 55487. Under setting [2], this molecule came in with a Z-score of -0.4273.
On to `C[C@]12CCC(=O)C=C1CC[C@@H]1[C@@H]2[C@@H](O)C[C@@]2(C)[C@H]1CC[C@]2(O)C(=O)CO` [Hydrocortisone], for which, under setting [1], the “Raw Signal” value stood at 54144. Also, under setting [2], the Z-score is -0.2078.
Turning to `C#CCn1c(=O)c2c(ncn2C)n(C)c1=O` [3,7-Dimethyl-I-propargylxanthine], the “Raw Signal” value under setting [4] was found to be 50513. Besides, the Z-score under setting [5] was -0.9452.
`C[C@@H](N)Cc1cnc[nH]1.Cl.Cl`: the “Raw Signal” value is reported as 55341 and the Z-score was determined as 0.03533.
Consider `CC(NC(C)(C)C)C(=O)c1cccc(Cl)c1` (stereo not shown) [Bupropion hydrochloride], for which, under setting [1], the “Raw Signal” value is listed as 56700. The molecule further displayed a Z-score under setting [2] of -0.2137.
Take `O=C1CC2(CCCC2)CC(=O)N1CCCCN1CCN(c2ncccn2)CC1` [Buspirone hydrochloride]: the “Raw Signal” value under setting [6] came out at 60893. Also, the Z-score under setting [7] worked out at 0.5248.
For the molecule `N=C(N)NC(=O)Cc1c(Cl)cccc1Cl` [Guanfacine hydrochloride], under setting [1], the “Raw Signal” value was 54831. The molecule also returned a Z-score under setting [3] of -0.06825.
As to `O=C(NCC1CCCCN1)c1cc(OCC(F)(F)F)ccc1OCC(F)(F)F` (stereo not shown) [Flecainide acetate], the “Raw Signal” value under setting [4] came to 50763. Further, the Z-score under setting [5] was -0.8944.
Regarding `Br.Br.NC(N)=NCCSSCCN=C(N)N` [Guanidinoethyl disulfide dihydrobromide], the “Raw Signal” value under setting [6] came to 61778. Besides, the Z-score under setting [7] amounted to 1.343.
Regarding `CC[N+](CC)(CC)CCOc1cccc(OCC[N+](CC)(CC)CC)c1OCC[N+](CC)(CC)CC` [Gallamine triethiodide], under setting [1], the “Raw Signal” value is given as 56632. The Z-score under setting [3] came out at 0.2975.
For `CC1=C(/C=C/C(C)=C/C=C/C(C)=C/C(=O)O)C(C)(C)CCC1` [Retinoic acid], the “Raw Signal” value under setting [4] is 50659. Under setting [5], this molecule registered a Z-score of -1.042.
In the case of `O=C([O-])/C=C/C(O)c1ccc(Cl)cc1.[Na+]` (stereo not shown) [NCS-356], the “Raw Signal” value under setting [6] came to 58969. Moreover, the Z-score under setting [7] is reported as 0.7688.
`C[C@]12CCC(=O)C=C1CC[C@@H]1[C@@H]2C(=O)C[C@@]2(C)[C@H]1CC[C@]2(O)C(=O)CO` [Cortisone]: the “Raw Signal” value under setting [6] is recorded as 65066. Under setting [7], this molecule gave a Z-score of 1.26.
For the molecule `Nc1ncnc2c1ncn2C1CCCO1` (stereo not shown) [SQ 22536], the “Raw Signal” value under setting [4] was determined as 63004. The same molecule registered a Z-score under setting [8] of 1.356.
